Results taken from patent US6303612A, “Derivatives of hydroxyphenylsulfanylbenzoic and hydroxphenylsulfanylarylacetic acids” (Leciva, A.S., priority 1998, dated 2001).
Converted amounts (≈) assume the structure as drawn. Like-named read-outs stand apart in the source and are kept apart here.

Tests used:
[1] = system: LTB4 production in rat polymorphonuclear cells; test: Ex vivo inhibition of LTB4 production (LTB4 biosynthesis); format: cell-based; conditions: for Inh. of LTB4 biosynth., %: at 30 μg (%/μg); for IC50: Rattus norvegicus, read-out: Inh. of LTB4 biosynth., IC50
Procedure: Ex vivo Inhibition of LTB4 Production The production of LTB4 was determined in rat polymorphonuclear cells from pleural exudate elicited by heat-activated rat serum (Palmer R. M. J., Salmon J. A.: Immunology 50, 65 (1983)). The cells were stimulated with the Ca ionophore A 23187 (Sigma) and incubated with various concentrations of the drugs tested. The sample containing only buffer was used for the determination of unaffected biosynthesis; the complete inhibition was measured in a sample with 100 μg of NDGA in 1 ml. LTB4 was determined in supernatant using a commercial RIA kit (Amersham).

Wistar-Han rats = test: Inhibition of carrageenan edema; format: in vivo; conditions: Rattus norvegicus, read-out: CE: inhibition of carrageenan-induced edema, % of inh.
rats = test: Inhibition of carrageenan-induced pleuritis in rats; format: in vivo; conditions: Rattus norvegicus, po, 4 h
Procedure: Inhibition of Carrageenan-induced Pleuritis in Rats
(Hidaka T. J.: Pharm. Pharmacol. 38, 242 (1986) 1 ml of 0.5% carrageenan solution in saline was administered intrapleurally to experimental animals under mild ether anesthesia. Test drugs were administered in single oral dose 1 h before carrageenan injection, 4 h following the carrageenan application the rats were killed and exudate was withdrawn from opened pleural cavity. The volume of exudate, its cellularity and total cell number were determined.

LTB4 receptor = LTB4 receptor (Cavia porcellus, UniProt H0VYV8); test: LTB4 receptor binding study; conditions: 3H-LTB4, guinea-pig spleen membranes; for IC50: read-out: Inh. of LTB4 rec. binding, IC50; for inhibition at 20 µM: read-out: Inh. of LTB4 rec. binding, %
Sequence of LTB4 receptor (H0VYV8 1-348): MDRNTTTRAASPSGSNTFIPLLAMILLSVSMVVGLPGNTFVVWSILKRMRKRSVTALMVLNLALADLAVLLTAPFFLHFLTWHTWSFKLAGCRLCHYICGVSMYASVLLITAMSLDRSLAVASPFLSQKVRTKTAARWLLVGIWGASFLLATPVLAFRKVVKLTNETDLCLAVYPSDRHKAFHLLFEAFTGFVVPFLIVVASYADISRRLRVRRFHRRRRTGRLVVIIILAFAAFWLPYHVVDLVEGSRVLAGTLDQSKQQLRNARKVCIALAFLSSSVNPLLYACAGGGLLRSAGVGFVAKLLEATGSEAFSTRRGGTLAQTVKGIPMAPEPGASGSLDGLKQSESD
Procedure: LTB4 Receptor Binding Study
A slightly modified method of Cheng and coworkers (Cheng J. B. et al.: J. Pharm. Expl. Ther. 236, 126 (1986)) was used. The membrane fraction was prepared from male guinea-pig spleen; 2 mg of membranes were incubated with 0.3 nM ^3 H-LTB4 at 25° C. for 30 min in 100 μl of the incubated mixture. The nonspecific binding was determined in the presence of 0.1 μM LTB4. The membranes were filtered though Whatman GF/C paper and washed triply with buffer. The radioactivity was measured by liquid scintillation spectrometry, and the specific binding of ^3 H-LTB4 to the receptor was determined.

LTD4 receptor = target: T1, LTD4 receptor (Cavia porcellus, UniProt Q2NNR5); test: LTD4 receptor binding study; conditions: 3H-LTD4, guinea-pig lung membranes; for IC50: read-out: Inh. of LTD4 rec. binding, IC50
T1 construct: The membrane fraction was prepared from male guinea-pig lungs; from tissue; host or cells: male guinea-pig lung membranes
T1 sequence (Q2NNR5 1-340): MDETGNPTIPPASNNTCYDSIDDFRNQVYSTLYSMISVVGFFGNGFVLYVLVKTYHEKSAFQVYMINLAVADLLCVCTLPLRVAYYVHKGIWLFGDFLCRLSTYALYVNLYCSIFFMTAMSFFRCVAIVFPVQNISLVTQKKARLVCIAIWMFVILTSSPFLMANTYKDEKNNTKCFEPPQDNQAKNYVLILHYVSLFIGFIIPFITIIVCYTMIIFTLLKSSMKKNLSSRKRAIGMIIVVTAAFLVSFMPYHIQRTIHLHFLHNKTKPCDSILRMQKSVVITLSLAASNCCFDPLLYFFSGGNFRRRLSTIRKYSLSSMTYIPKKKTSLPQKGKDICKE
Procedure: LTD4 Receptor Binding Study
This study was performed according to the method of Burns and coworkers (Burns R. F. et al.: Life Sci. 33, 645 (1983)). The membrane fraction was prepared from male guinea-pig lungs, and 4 mg of this fraction were incubated with 0.4 nM ^3 H-LTD4 for 60 min at 25° C. in 100 μl of the incubated mixture. The nonspecific binding was determined in the presence of 0.1 μM LTD4. The filtration of the membranes, washing, and radioactivity measurement were as above.

male mice = test: Inhibition of arachidonic acid-induced ear inflammation in mice; format: in vivo; conditions: Mus musculus, po, 1 h
Procedure: Inhibition of Arachidonic Acid-induced Ear Inflammation in Mice (Opas E. E. et al.: J. Invest. Dermatol. 84, 253 (1985) Ear inflammation was induced in male mice by 20 μl of arachidonic acid dissolved in acetone (concentration 100 mg/ml). The mice were sacrificed 1 h after application of arachidonic acid and the ears were cut off by standard means. The other, vehicle-treated ear of the same animal served as a control. The degree of ear hyperemia and the weight of ear lobes were evaluated. Test compounds were administered orally 1 h before the induction of inflammation.

[2] = system: peroxidation of lipids from the hepatic cells membranes; test: Antioxidant effect in vitro; format: biochemical; conditions: at 100 μg
Text: Antioxidant Effect in vitro
The end-product, malonic dialdehyde, was transformed to coloured complex with thiobarbituric acid and determined spectrophotometrically. The antioxidant effect was expressed in % of peroxidation inhibition in the presence of the compound tested in comparison to a control sample.

[3] = read-out: Inh. of LTD4 rec. binding, %
[4] = values with mark n: p > 0.05, read-out: Ear edema, D: edema of ear lobe, % of inh.
[5] = values with mark n: p > 0.05, read-out: Ear edema, E: hyperemia of ear lobe, % of inh.
[6] = dose 100 mg/kg, oral, values with mark n: p > 0.05, read-out: Experimental pleuritis, A: volume of exudate in pleural cavity, % of inh.
[7] = dose 100 mg/kg, oral, values with mark n: p > 0.05, read-out: Experimental pleuritis, B: number of cells, % of inh.
[8] = dose 100 mg/kg, oral, values with mark n: p > 0.05, read-out: Experimental pleuritis, C: cellularity in a volume unit, % of inh.

Structure (SMILES)	Inh. of LTB4 biosynth., % [1]	inhibition in vivo at 100 mg/kg (Wistar-Han rats)	inhibition in vivo at 100 mg/kg (rats; read-out: Experimental pleuritis, A: volume of exudate in pleural cavity, % of inh.)	inhibition in vivo at 100 mg/kg (rats; read-out: Experimental pleuritis, B: number of cells, % of inh.)	inhibition in vivo at 100 mg/kg (rats; read-out: Experimental pleuritis, C: cellularity in a volume unit, % of inh.)	IC50 (LTB4 receptor)	inhibition at 20 µM (LTB4 receptor)	IC50 (LTD4 receptor)	inhibition at 100 µM (LTD4 receptor; [3])	inhibition in vivo at 200 mg/kg (male mice; [4])	inhibition in vivo at 200 mg/kg (male mice; [5])	Antiox. effect, % of peroxidation inhibition [2]	inhibition in vivo at 100 mg/kg (Wistar-Han rats; dose 100 mg/kg)	inhibition in vivo at 100 mg/kg (rats; [6])	inhibition in vivo at 100 mg/kg (rats; [7])	inhibition in vivo at 100 mg/kg (rats; [8])	IC50 [1]	inhibition at 20 µM (LTD4 receptor; at 20 μM, read-out: Inh. of LTD4 rec. binding, %)
CCCc1c(OCCCOc2ccc(Sc3ccccc3C(=O)O)cc2)ccc(C(C)=O)c1O [Compound 4]	100%	35%	10%	35%	30%	13 µM	47%	10.4 µM	100%	6%	2%	34%	–	–	–	–	–	–
CCCc1c(OCCCCOc2cccc(Sc3ccc(C(=O)O)cc3[N+](=O)[O-])c2)ccc(C(C)=O)c1O [Compound 9, 4-(3-(4-(4-Acetyl-3-hydroxy-2-propylphenoxy)butoxy)phenylsulfanyl)-3-nitrobenzoic Acid]	100%	–	–	–	–	15 µM	65%	48.4 µM	53%	14%	2%	40%	19%	34%	54%	30%	–	–
O=C(O)Cc1ccccc1Sc1ccc(OCCCN2CCN(Cc3ccc(Cl)cc3)CC2)cc1 [Compound 27]	89%	–	–	–	–	–	12%	–	22%	7%	22%	20%	13%	8%	61%	47%	9.2 µg/mL (≈ 18 µM)	–
CCCc1c(OCCCOc2cccc(Sc3ccccc3C(=O)O)c2)ccc(C(C)=O)c1O [Compound 6, 2-(3-(3-(4-Acetyl-3-hydroxy-2-propylphenoxy)propoxy)phenylsulfanyl)benzoic Acid]	73%	–	–	–	–	20.6 µM	50%	4.1 µM	100%	9%	8%	19%	22%	26%	29%	6%	–	–
CCCc1c(OCCCCOc2ccc(Sc3ccc([N+](=O)[O-])cc3C(=O)O)cc2)ccc(C(C)=O)c1O [Compound 10, 2-(4-(4-(4-Acetyl-3-hydroxy-2-propylphenoxy)butoxy)phenylsulfanyl)-5-nitrobenzoic Acid]	100%	–	–	–	–	13 µM	66%	15.2 µM	89%	20%	2%	14%	22%	14%	31%	19%	–	–
CCCc1c(OCCCOc2ccc(Sc3ccc(C(=O)O)cc3)cc2)ccc(C(C)=O)c1O [Compound 3, 4-(4-(3-(4-Acetyl4-3-hydroxy-2-propylphenoxy)propoxy)phenylsulfanyl)benzoicAcid]	100%	–	–	–	–	20 µM	50%	19 µM	97%	8%	5%	33%	32%	2%	27%	28%	0.48 µg/mL (≈ 0.999 µM)	–
O=C(O)Cc1ccccc1Sc1cccc(OCc2ccc3cc(Cl)ccc3n2)c1 [Compound 31, 2-(3-(6-Chloroquinoline-2-ylmethoxy)phenylsulfanyl)phenylacetic Acid]	100%	–	–	–	–	58.9 µM	40%	1.15 µM	–	16%	11%	4%	13%	24%	75%	39%	0.46 µg/mL (≈ 1.06 µM)	83%
CCCc1c(OCCCCOc2ccc(Sc3ccccc3C(=O)O)cc2)ccc(C(C)=O)c1O [Compound 7]	100%	–	–	–	–	12 µM	68%	13.6 µM	100%	16%	5%	16%	41%	14%	35%	26%	–	–
O=C(O)Cc1ccccc1Sc1ccc(OCc2ccc3ccccc3n2)cc1 [Compound 29, 2-(4-(Quinoline-2-ylmethoxy)phenylsulfanyl)phenylacetic Acid]	44%	–	–	–	–	24 µM	50%	0.6 µM	95%	2%	22%	0%	52%	3%	27%	25%	28 µg/mL (≈ 69.7 µM)	–
